Data published in PMC9115913 (Biological chemistry, 2022).
In brackets after ≈: the same amount, converted by molar mass. Several values for one entry are separate records, joined by “and”; a condition that tells them apart may be missing. Equal entries are not always repeated. Where two headings read alike, the source gives them in different places.

What was measured:
[1] = system: S. pneumoniae IU1945; test: Antimicrobial susceptibility assay; assay type: cell-based; details: Streptococcus pneumoniae
[2] = molecular target: PBP1a (Streptococcus pneumoniae, UniProt Q8DR59); test: cell-based; assay type: binding; details: IC50 PBPla
[3] = molecular target: PBP1b (Streptococcus pneumoniae, UniProt Q7CRA4); assay type: binding; details: read-out: IC50 PBP1b
[4] = molecular target: PBP2x (Streptococcus pneumoniae, UniProt P59676); test: cell-based; assay type: binding
[5] = molecular target: PBP2a (Streptococcus pneumoniae, UniProt Q8DNB6); test: cell-based; assay type: binding
[6] = molecular target: PBP2b (Streptococcus pneumoniae, UniProt P0A3M6); test: cell-based; assay type: binding
[7] = molecular target: T1, PBP3 (Streptococcus pneumoniae, UniProt Q8DQ99); details: read-out: IC50 PBP3
T1 sequence (Q8DQ99 23-413): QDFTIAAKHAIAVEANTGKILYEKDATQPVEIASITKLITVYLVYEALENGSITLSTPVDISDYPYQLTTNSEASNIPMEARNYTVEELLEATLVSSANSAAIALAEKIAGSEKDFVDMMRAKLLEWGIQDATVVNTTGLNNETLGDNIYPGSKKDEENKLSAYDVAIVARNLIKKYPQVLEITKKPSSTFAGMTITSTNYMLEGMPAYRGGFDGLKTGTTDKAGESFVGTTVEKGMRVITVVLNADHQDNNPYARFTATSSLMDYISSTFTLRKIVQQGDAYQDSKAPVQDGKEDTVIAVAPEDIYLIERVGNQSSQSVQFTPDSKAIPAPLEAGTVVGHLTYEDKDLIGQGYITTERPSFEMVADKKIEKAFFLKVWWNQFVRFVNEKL

[8] = strain IU1945, average ± SEM of two experiments
[9] = Δpbp1b mutant strain, average ± SEM
[10] = Δpbp1a mutant strain, average ± SEM

Sequence of PBP2b (P0A3M6 whole entry): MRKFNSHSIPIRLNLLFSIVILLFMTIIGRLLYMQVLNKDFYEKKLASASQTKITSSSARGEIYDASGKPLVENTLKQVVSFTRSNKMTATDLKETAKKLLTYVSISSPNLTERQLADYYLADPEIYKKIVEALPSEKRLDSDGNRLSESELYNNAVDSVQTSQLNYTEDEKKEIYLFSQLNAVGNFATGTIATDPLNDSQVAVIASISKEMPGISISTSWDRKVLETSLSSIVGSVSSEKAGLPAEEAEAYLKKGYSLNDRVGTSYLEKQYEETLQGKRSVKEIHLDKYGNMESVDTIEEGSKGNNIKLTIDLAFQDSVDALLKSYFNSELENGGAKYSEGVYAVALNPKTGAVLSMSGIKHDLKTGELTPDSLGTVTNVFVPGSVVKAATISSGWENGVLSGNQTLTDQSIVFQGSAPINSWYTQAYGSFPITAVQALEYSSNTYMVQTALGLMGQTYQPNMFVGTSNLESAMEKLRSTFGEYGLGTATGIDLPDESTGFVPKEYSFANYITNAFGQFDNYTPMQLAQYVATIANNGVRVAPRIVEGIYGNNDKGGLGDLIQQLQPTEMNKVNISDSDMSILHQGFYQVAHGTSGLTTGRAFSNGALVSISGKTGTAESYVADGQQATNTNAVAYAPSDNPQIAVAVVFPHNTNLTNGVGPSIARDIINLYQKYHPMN
Sequence of PBP2x (P59676 whole entry): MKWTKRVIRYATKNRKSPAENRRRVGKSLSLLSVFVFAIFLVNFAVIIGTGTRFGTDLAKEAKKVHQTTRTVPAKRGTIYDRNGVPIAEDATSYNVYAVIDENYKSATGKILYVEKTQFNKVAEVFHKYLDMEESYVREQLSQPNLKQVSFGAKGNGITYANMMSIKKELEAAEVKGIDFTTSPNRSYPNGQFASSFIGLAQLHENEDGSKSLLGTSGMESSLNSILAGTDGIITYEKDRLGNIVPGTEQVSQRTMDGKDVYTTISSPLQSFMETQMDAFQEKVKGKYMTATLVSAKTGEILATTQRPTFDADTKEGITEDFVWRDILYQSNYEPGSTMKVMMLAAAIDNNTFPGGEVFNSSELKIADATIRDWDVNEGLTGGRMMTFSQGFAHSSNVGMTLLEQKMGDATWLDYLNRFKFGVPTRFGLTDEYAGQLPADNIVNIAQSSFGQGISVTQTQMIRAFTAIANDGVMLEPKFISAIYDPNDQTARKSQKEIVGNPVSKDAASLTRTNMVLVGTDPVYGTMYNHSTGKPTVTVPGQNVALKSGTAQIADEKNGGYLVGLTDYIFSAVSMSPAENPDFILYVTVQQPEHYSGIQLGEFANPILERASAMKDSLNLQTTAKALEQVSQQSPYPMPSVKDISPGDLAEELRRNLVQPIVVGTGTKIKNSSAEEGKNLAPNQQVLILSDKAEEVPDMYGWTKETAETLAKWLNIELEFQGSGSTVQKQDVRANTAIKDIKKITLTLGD
Sequence of PBP1a (Q8DR59 whole entry): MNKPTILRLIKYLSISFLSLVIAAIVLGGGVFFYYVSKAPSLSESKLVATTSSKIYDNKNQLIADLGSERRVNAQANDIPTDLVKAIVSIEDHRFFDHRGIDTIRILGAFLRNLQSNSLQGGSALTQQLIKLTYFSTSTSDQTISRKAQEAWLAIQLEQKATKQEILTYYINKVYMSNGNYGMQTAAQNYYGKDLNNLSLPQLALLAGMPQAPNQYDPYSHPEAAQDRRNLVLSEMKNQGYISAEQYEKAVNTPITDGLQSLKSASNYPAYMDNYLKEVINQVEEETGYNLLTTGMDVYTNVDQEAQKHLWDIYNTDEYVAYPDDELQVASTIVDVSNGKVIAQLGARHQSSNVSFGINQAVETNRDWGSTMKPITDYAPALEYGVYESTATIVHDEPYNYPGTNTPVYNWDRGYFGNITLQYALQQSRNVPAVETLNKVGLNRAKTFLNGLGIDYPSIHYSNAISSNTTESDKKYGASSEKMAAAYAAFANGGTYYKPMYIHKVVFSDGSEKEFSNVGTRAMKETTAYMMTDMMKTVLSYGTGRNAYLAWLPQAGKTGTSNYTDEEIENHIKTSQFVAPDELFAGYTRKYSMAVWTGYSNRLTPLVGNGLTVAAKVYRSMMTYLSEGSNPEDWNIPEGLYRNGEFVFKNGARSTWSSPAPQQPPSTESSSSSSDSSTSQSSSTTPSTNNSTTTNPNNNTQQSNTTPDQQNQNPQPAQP
Sequence of PBP2a (Q8DNB6 whole entry): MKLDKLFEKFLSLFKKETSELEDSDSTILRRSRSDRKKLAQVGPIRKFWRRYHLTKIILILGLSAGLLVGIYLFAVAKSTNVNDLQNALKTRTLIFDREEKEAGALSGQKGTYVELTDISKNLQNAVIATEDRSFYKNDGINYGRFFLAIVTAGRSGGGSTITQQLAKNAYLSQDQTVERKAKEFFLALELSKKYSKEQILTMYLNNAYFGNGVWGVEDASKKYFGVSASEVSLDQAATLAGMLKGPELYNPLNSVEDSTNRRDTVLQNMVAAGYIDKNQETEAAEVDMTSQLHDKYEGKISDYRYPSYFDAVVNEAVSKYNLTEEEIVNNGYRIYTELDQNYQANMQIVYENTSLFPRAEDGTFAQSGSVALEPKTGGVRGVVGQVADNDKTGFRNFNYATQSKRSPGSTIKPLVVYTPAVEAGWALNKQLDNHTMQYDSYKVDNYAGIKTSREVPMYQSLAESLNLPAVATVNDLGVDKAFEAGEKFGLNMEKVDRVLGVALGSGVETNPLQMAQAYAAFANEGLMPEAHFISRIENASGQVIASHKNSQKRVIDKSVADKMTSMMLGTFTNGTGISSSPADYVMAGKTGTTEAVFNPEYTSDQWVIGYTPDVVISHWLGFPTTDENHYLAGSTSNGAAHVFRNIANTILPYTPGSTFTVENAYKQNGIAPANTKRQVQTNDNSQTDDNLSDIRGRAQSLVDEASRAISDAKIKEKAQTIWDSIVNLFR

SMILES	MIC [1] [µM]	IC50 [2, 8] [µM]	IC50 [3, 8] [µM]	IC50 [4, 8]	IC50 [5, 8] [µM]	IC50 [6, 8] [µM]	IC50 [7, 8]	IC50 [2, 9] [µM]	IC50 [3, 10] [µM]	IC50 [4, 10] [µM]	IC50 [4, 9] [µM]	IC50 [5, 10] [µM]	IC50 [5, 9] [µM]	IC50 [6, 10] [µM]	IC50 [6, 9] [µM]	IC50 [7, 10] [µM]	IC50 [7, 9] [µM]
CCOc1ccc2ccccc2c1C(=O)N[C@@H]1C(=O)N2[C@@H]1SC(C)(C)[C@@H]2C(=O)O [Nafcillin, nafcillin]	0.01 (≈ 4.14 ng/mL)	94.5 ± 88.6	32.4 ± 3.78	0.014 ± 0.006 µM	4.54 ± 1.75	1.27 ± 0.306	0.125 ± 0.061 µM										
CC1(C)S[C@@H]2[C@H](NC(=O)[C@H](NC(=O)N3CCNC3=O)c3ccccc3)C(=O)N2[C@H]1C(=O)O [Azlocillin, azlocillin]		1.53 ± 0.532	0.963 ± 0.477	0.081 ± 0.018 µM	1.4 ± 0.693	0.294 ± 0.131	0.065 ± 0.013 µM										
CO/N=C(\C(=O)N[C@@H]1C(=O)N2C(C(=O)[O-])=C(C[n+]3cccc4c3CCC4)CS[C@H]12)c1csc(N)n1 [Cefpirome, cefpirome]	0.01 (≈ 5.15 ng/mL)	0.051 ± 0.011	0.024 ± 0.008	0.002 ± 0.001 µM	0.016 ± 0.004	5.53 ± 2.99											
CO[C@@]1(NC(=O)C2SC(=C(C(N)=O)C(=O)O)S2)C(=O)N2C(C(=O)O)=C(CSc3nnnn3C)CS[C@@H]21 (some centres unmarked) [Cefotetan, cefotetan]	1 (≈ 576 ng/mL)	14.6 ± 6.7	0.538 ± 0.201	14.4 ± 5.77 µM	54.3 ± 21.5		0.069 ± 0.015 µM										
C=CC1=C(C(=O)O)N2C(=O)[C@@H](NC(=O)/C(=N\OCC(=O)O)c3csc(N)n3)[C@H]2SC1 [Cefixime, cefixime]	0.1 (≈ 45.3 ng/mL)	32.3 ± 34.4	8.96 ± 4.6	0.336 ± 0.224 µM	4.85 ± 2.06	> 1000	0.026 ± 0.007 µM										
CO/N=C(\C(=O)N[C@@H]1C(=O)N2C(C(=O)[O-])=C(C[N+]3(C)CCCC3)CS[C@H]12)c1csc(N)n1 [Cefepime, cefepime]	0.01 (≈ 4.81 ng/mL)																
C[C@@H](O)[C@H]1C(=O)N2C(C(=O)[O-])=C(SC3Cn4cnc[n+]4C3)[C@H](C)[C@H]12 (some centres unmarked) [Biapenem, biapenem]	0.01 (≈ 3.5 ng/mL)	0.06 ± 0.021	6.82 ± 4.15		0.146	0.111 ± 0.106	0.006 ± 0.001 µM										
Cc1onc(-c2c(F)cccc2Cl)c1C(=O)N[C@@H]1C(=O)N2[C@@H]1SC(C)(C)[C@@H]2C(=O)O [Flucloxacillin, flucloxacillin]	1 (≈ 454 ng/mL)	12.4 ± 4.2	17.7 ± 4.16	0.83 µM and 0.832 µM	35.3 ± 26	18.5 ± 11.1	0.91 µM and 0.911 µM	11 ± 2.47	50.5 ± 2.03	0.889 ± 0.389	2.01 ± 0.878	16 ± 2.01	51.5 ± 5.16	16.8 ± 9.3	33.5 ± 16	0.783 ± 0.581	1.95 ± 0.884
Cc1onc(-c2ccccc2Cl)c1C(=O)N[C@@H]1C(=O)N2[C@@H]1SC(C)(C)[C@@H]2C(=O)O [Cloxacillin, cloxacillin]		0.561 ± 0.219	0.977 ± 0.372	0.119 ± 0.062 µM	4.47 ± 2.24	2.36 ± 1.77	0.102 ± 0.092 µM										
